Source: US20240342066A1, “HIGH POTENCY EMULSIONS” (Vertosa Inc., priority 0001, published 2024)

System: skin
Assay: Patch test for skin irritation and allergy
Assay type: in vivo, human
Settings: positive control
Experimental: These three emulsions were first evaluated for skin irritation and allergy studies using a patch test at a third-party skin care evaluation lab. The three pure emulsion formulas were tested at 20 mg/mL concentration on the patch on 55 subjects.
The patches were prepared with each of the 3 different emulsion types separately. Each emulsion was prepared at 20 mg/g. The test was focused on the effects of the emulsion without the influence of any other skin care ingredients. The goal was to stress test if pure emulsion can cause any skin irritation. […]
Below is the procedure of the patch test: • Step 1: Subjects were requested to bathe or wash as usual before arrival at the facility. • Step 2: Patches containing the test material were then affixed directly to the skin of the intrascapular regions of the back, to the right or left of the midline, and subjects were dismissed with instructions not to wet or expose the test area to direct sunlight. • Step 3: Patches remained in place for 48 hours after the first application. […] Test sites were evaluated by trained laboratory personnel 48 and 96 hours after application. • Step 7: In the event of an adverse reaction, the area of erythema and edema were measured. […]

With `CCCCCCCCCCCCOS(=O)(=O)[O-].[Na+]` [2.0% Sodium Lauryl Sulfate Solution, Sodium Lauryl Sulfate] the “subjects with a Grade 1 reaction” value was 8 subjects.
